Assays:
[1] = DRUGMATRIX: Glutamate, NMDA, Agonism radioligand binding (ligand: [3H] CGP-39653); type: cell membranes, Rattus norvegicus, Wistar, Cerebral cortex, Membrane; details: Not Active = under 50% inhibition at 10 µM
Mu-type opioid receptor = Mu-type opioid receptor (Homo sapiens, UniProt P35372); assay: DRUGMATRIX: Opiate mu (OP3, MOP) radioligand binding (ligand: [3H] Diprenorphine); type: cell membranes, CHO-K1, Membrane; details: cho-k1; Not Active = under 50% inhibition at 10 µM
[2] = biological target: T1, 5-hydroxytryptamine receptor 2C (Homo sapiens, UniProt P28335); assay: DRUGMATRIX: Serotonin (5-Hydroxytryptamine) 5-HT2C radioligand binding (ligand: [3H] Mesulergine); type: cell membranes, CHO-K1, Membrane; details: cho-k1; Not Active = under 50% inhibition at 10 µM
T1 sequence (P28335 whole entry): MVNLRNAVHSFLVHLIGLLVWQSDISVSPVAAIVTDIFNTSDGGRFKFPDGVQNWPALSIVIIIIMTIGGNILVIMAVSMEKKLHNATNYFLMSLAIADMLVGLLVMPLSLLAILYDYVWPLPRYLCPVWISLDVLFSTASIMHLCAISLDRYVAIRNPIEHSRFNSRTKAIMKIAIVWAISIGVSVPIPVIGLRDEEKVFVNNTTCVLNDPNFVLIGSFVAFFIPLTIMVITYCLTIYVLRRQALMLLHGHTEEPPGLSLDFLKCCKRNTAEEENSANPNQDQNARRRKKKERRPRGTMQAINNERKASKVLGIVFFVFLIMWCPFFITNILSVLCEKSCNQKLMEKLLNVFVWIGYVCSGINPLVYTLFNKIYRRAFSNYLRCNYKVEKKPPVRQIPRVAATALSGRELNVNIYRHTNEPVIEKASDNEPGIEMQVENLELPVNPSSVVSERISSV

[3] = DRUGMATRIX: GABAA, Chloride Channel, TBOB radioligand binding (ligand: [3H] TBOB); type: cell membranes, Rattus norvegicus, Wistar, Cerebral cortex, Membrane; details: Not Active = under 50% inhibition at 10 µM
[4] = DRUGMATRIX: Leukotriene, BLT (LTB4) radioligand binding (ligand: [3H]LTB4); type: cell membranes, Membrane; details: u-937; Not Active = under 50% inhibition at 10 µM
Cytochrome P450 2A6 = biological target: T2, Cytochrome P450 2A6 (Homo sapiens, UniProt P11509); details: bti-tn-5b1-4; also: in other assays of this panel Not Active means under 50% inhibition at 10 µM
T2 sequence (P11509 whole entry): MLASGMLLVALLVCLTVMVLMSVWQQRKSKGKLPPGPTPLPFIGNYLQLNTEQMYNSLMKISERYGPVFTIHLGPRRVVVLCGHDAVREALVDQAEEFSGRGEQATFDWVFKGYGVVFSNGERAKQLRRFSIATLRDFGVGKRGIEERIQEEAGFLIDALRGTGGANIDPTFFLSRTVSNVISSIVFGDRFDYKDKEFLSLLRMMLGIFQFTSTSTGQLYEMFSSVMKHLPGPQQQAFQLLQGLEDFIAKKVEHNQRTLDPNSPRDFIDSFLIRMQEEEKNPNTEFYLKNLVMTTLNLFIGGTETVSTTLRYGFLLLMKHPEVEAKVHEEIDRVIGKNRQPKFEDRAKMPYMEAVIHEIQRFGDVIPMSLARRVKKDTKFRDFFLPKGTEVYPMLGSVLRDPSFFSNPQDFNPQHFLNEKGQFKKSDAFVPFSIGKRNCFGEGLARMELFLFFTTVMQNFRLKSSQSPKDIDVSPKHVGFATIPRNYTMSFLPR

Melanocortin receptor 3 = Melanocortin receptor 3 (Homo sapiens, UniProt P41968); type: cell membranes, Membrane; details: hek293; also: in other assays of this panel Not Active means under 50% inhibition at 10 µM
Sequence of Melanocortin receptor 3 (P41968 whole entry): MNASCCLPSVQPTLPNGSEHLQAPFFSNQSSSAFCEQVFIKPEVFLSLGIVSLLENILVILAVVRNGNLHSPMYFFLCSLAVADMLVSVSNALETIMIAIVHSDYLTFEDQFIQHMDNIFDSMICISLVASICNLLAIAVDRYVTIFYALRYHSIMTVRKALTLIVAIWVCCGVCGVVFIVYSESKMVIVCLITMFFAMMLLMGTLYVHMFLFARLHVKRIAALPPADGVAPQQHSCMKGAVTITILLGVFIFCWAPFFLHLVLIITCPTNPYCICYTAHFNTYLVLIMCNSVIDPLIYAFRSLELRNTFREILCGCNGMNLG

[5] = DRUGMATRIX: Serotonin (5-Hydroxytryptamine) 5-HT3 radioligand binding (ligand: [3H] GR-65630); type: cell membranes, Membrane; details: hek293; Not Active = under 50% inhibition at 10 µM
Leukotriene C4 synthase = biological target: T3, Leukotriene C4 synthase (Cavia porcellus, UniProt A6XA80); assay: biochemical; type: tissue-based, Lung;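 also: enzyme inhibition assay of leukotriene C4 synthase, using LTA4 as the substrate; in other assays of this panel Not Active means under 50% inhibition at 10 µM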
T3 sequence (A6XA80 whole entry): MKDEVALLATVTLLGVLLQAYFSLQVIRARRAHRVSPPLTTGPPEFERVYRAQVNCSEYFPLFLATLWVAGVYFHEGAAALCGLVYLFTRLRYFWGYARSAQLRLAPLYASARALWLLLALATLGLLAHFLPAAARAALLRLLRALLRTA

[6] = biological target: Delta-type opioid receptor (Homo sapiens, UniProt P41143); type: cell membranes, HEK293, Membrane; details: hek293; also: in other assays of this panel Not Active means under 50% inhibition at 10 µM
Sequence of Delta-type opioid receptor (P41143 whole entry): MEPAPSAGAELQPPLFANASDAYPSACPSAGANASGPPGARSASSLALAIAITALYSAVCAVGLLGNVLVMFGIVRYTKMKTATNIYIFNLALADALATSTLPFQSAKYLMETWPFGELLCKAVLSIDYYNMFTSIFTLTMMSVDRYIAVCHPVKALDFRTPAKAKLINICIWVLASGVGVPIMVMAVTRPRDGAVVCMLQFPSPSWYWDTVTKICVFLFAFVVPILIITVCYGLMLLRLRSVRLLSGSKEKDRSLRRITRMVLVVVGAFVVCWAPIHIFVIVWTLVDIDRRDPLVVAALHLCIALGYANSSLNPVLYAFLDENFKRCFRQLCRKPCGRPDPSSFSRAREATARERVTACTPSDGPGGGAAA

Insulin receptor = Insulin receptor (Rattus norvegicus, UniProt P15127); type: cell membranes, Wistar, Liver, Membrane; also: in other assays of this panel Not Active means under 50% inhibition at 10 µM
Sequence of Insulin receptor (P15127 27-759 limits assumed): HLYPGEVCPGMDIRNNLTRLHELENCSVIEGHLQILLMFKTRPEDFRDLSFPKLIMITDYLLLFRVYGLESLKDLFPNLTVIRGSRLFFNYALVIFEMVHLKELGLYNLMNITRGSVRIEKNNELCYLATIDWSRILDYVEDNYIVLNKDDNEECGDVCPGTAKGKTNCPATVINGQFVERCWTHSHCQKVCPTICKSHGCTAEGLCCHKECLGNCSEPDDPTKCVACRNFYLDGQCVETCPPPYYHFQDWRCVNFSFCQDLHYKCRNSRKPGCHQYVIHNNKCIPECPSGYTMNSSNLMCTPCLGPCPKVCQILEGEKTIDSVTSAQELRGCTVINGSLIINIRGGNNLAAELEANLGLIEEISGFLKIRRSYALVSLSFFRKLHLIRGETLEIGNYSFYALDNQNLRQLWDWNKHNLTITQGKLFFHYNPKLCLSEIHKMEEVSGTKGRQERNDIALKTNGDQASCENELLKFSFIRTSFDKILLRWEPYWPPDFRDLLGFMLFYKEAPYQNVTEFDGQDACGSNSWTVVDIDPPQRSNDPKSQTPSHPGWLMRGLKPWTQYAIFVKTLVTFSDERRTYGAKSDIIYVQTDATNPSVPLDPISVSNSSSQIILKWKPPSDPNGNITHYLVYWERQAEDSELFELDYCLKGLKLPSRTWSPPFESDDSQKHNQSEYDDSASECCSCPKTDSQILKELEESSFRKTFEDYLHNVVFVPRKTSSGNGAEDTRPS
Sequence of Insulin receptor (P15127 764-1383 limits assumed): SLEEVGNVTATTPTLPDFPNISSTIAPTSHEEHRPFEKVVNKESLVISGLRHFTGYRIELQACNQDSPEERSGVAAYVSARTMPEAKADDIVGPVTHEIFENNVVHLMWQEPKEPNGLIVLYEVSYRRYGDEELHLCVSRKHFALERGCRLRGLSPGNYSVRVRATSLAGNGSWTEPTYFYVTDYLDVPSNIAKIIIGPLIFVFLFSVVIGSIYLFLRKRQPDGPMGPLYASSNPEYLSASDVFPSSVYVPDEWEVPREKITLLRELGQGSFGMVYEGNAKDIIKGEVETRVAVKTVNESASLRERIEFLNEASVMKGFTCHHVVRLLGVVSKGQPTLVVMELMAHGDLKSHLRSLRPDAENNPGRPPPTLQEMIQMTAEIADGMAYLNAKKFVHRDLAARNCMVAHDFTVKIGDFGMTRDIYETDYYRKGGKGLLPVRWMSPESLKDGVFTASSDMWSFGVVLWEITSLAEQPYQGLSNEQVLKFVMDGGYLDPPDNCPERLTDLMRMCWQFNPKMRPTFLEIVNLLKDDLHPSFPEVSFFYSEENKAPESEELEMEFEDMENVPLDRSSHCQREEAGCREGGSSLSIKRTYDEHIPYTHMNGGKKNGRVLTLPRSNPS

[7] = biological target: Aldo-keto reductase family 1 member B1 (Rattus norvegicus, UniProt P07943); type: tissue-based, Lens of camera-type eye
[8] = biological target: T4, Muscarinic acetylcholine receptor M5 (Homo sapiens, UniProt P08912); type: cell membranes, CHO-K1, Membrane; details: cho-k1; also: in other assays of this panel Not Active means under 50% inhibition at 10 µM
T4 sequence (P08912 whole entry): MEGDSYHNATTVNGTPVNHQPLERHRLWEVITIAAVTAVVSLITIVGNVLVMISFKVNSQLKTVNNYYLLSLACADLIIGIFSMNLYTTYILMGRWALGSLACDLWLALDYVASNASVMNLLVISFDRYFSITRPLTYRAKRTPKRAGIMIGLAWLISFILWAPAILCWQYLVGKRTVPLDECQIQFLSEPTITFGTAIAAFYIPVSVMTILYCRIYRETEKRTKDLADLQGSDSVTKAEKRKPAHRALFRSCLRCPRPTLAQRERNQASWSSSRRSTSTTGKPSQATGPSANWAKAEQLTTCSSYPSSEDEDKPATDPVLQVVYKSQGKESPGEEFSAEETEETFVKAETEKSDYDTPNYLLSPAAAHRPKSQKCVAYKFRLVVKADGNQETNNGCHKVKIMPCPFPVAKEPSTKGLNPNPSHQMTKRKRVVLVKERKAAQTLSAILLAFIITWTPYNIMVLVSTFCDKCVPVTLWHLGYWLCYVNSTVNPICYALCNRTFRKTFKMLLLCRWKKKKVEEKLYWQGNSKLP

[9] = biological target: T5, 5-hydroxytryptamine receptor 1A (Rattus norvegicus, UniProt P19327); type: cell membranes, CHO-K1, Membrane; details: cho-k1; also: in other assays of this panel Not Active means under 50% inhibition at 10 µM
T5 sequence (P19327 whole entry): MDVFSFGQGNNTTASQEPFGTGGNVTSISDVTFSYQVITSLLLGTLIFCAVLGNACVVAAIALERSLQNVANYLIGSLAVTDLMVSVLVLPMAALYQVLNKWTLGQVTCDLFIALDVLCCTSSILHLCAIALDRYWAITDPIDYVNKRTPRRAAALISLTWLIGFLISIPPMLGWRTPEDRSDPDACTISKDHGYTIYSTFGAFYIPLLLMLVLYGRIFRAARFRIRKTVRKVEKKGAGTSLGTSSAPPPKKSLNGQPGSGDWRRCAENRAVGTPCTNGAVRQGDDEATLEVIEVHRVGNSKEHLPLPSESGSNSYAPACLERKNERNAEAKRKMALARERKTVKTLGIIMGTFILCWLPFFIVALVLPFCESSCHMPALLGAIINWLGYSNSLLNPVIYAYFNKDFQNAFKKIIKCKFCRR

Sequence of Mu-type opioid receptor (P35372 whole entry): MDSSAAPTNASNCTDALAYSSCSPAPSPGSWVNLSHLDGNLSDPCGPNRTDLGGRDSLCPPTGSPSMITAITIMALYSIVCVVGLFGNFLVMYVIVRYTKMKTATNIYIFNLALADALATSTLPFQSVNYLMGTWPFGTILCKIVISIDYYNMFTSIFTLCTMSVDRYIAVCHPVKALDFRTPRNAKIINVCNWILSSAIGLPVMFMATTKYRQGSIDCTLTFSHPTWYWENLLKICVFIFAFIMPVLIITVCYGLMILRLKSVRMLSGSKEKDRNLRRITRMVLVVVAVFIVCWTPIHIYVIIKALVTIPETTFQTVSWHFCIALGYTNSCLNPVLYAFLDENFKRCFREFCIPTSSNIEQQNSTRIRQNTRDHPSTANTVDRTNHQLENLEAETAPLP

CC[C@H]1OC(=O)[C@H](C)[C@@H](O[C@H]2C[C@@](C)(OC)[C@@H](O)[C@H](C)O2)[C@H](C)[C@@H](O[C@@H]2O[C@H](C)C[C@H](N(C)C)[C@H]2O)[C@](C)(O)C[C@@H](C)/C(=N\OCOCCOC)[C@H](C)[C@@H](O)[C@]1(C)O [ROXITHROMYCIN]
Not Active: IC50 [1] | Ki [1] | IC50 (Mu-type opioid receptor) | IC50 [2] | IC50 [3] | Ki [3] | IC50 [4] | Ki [4] | IC50 (Cytochrome P450 2A6) | Ki (Cytochrome P450 2A6) | IC50 (Melanocortin receptor 3) | IC50 [5] | Ki [5] | IC50 (Leukotriene C4 synthase) | IC50 [6] | IC50 (Insulin receptor) | IC50 [7] | IC50 [8] | IC50 [9]

NC(=O)c1ccccc1O [SALICYLAMIDE]
Not Active: IC50 [1] | Ki [1] | IC50 (Mu-type opioid receptor) | IC50 [2] | IC50 [3] | Ki [3] | IC50 [4] | Ki [4] | IC50 (Cytochrome P450 2A6) | Ki (Cytochrome P450 2A6) | IC50 (Melanocortin receptor 3) | IC50 [5] | Ki [5] | IC50 (Leukotriene C4 synthase) | IC50 [6] | IC50 (Insulin receptor) | IC50 [7] | IC50 [8] | IC50 [9]

Cc1ncc([N+](=O)[O-])n1CC(C)O (stereo not given) [SECNIDAZOLE]
Not Active: IC50 [1] | Ki [1] | IC50 (Mu-type opioid receptor) | IC50 [2] | IC50 [3] | Ki [3] | IC50 [4] | Ki [4] | IC50 (Cytochrome P450 2A6) | Ki (Cytochrome P450 2A6) | IC50 (Melanocortin receptor 3) | IC50 [5] | Ki [5] | IC50 (Leukotriene C4 synthase) | IC50 [6] | IC50 (Insulin receptor) | IC50 [7] | IC50 [8] | IC50 [9]

CC(=O)S[C@@H]1CC2=CC(=O)CC[C@]2(C)[C@H]2CC[C@@]3(C)[C@@H](CC[C@@]34CCC(=O)O4)[C@H]12 [SPIRONOLACTONE]
Not Active: IC50 [1] | Ki [1] | IC50 (Mu-type opioid receptor) | IC50 [2] | IC50 [3] | Ki [3] | IC50 [4] | Ki [4] | IC50 (Cytochrome P450 2A6) | Ki (Cytochrome P450 2A6) | IC50 (Melanocortin receptor 3) | IC50 [5] | Ki [5] | IC50 (Leukotriene C4 synthase) | IC50 [6] | IC50 (Insulin receptor) | IC50 [7] | IC50 [8] | IC50 [9]

C[C@]12Cc3c[nH]nc3C[C@@H]1CC[C@@H]1[C@@H]2CC[C@@]2(C)[C@H]1CC[C@]2(C)O [STANOZOLOL]
Not Active: IC50 [1] | Ki [1] | IC50 (Mu-type opioid receptor) | IC50 [2] | IC50 [3] | Ki [3] | IC50 [4] | Ki [4] | IC50 (Cytochrome P450 2A6) | Ki (Cytochrome P450 2A6) | IC50 (Melanocortin receptor 3) | IC50 [5] | Ki [5] | IC50 (Leukotriene C4 synthase) | IC50 [6] | IC50 (Insulin receptor) | IC50 [7] | IC50 [8] | IC50 [9]

From ChEMBL document CHEMBL1909046, “DrugMatrix in vitro pharmacology data”
